Holding throughout (settings): 24 h
The subject of experiment [1] is NKTC primary neonatal keratinocytes.
Experiment [2] deals with NHEK immortalized keratinocytes.
The test system is the same in experiment [3]. In words: IC50 cell viability (CellTiter-Glo).
The subject of experiment [4] is NKTC primary neonatal keratinocytes. In words: IC50 cell viability (CellTiter-Glo). In general terms: ATP-based viability assays read luminescence as a measure of living cells.

Counter-ions that a name gives are not always drawn.

With `O=c1[nH]sc2ccccc12` [1,2-Benzisothiazolin-3-one], the “IC50 cell viability (WST-8)” value in experiment [1] was found to be 21.4 µM; in experiment [2], 1.68 µM. Also, the IC50 cell viability is 1.26 µM in experiment [3] and 16 µM in experiment [4].
`N#CCCC(Br)(C#N)CBr` (configuration not stated) [1,2-Dibromo-2,4-dicyanobutane]: the “IC50 cell viability (WST-8)” value in experiment [1] and in experiment [2] was greater than 88 µM throughout. Moreover, the values for the IC50 cell viability in experiment [3] and in experiment [4] were 60.4 µM and 77.7 µM, respectively.
On to `C[C@H](O)CCO` [1,3-Butanediol], for which the “IC50 cell viability (WST-8)” value in experiment [2] amounted to 5.52 µM. Also, in experiment [3], the IC50 cell viability came out at 13.5 µM.
`O=[N+]([O-])c1ccc(Cl)c([N+](=O)[O-])c1` [1-Chloro-2,4-dinitrobenzene]: the “IC50 cell viability (WST-8)” value in experiment [1] is 9.18 µM; in experiment [2], 4.76 µM. The IC50 cell viability in experiment [3] came out at 5.43 µM; in experiment [4], 9.18 µM.
Consider `CCCCCCCCCCCCN1CCCC1=O` [1-Dodecyl-2-pyrrolidinone], for which the “IC50 cell viability (WST-8)” value in experiment [2] worked out at 15.8 µM. Also, the values for the IC50 cell viability in experiment [3] and in experiment [4] were 18.4 µM and 29.1 µM, respectively.
For `O=C(c1ccccc1)c1ccc(O)cc1O` [2,4-Dihydroxybenzophenone], the “IC50 cell viability (WST-8)” value in experiment [2] turned out to be 44.4 µM. The IC50 cell viability in experiment [3] amounted to 58.1 µM.
For `C=CC(=O)OCCO` [2-Hydroxyethyl acrylate] the same measures were 17.4 µM and 35.1 µM.
Consider `Cn1sccc1=O` [2-Methyl-4-isothiazolin-3-one hydrochloride], for which, in experiment [2], the “IC50 cell viability (WST-8)” value amounted to 32.2 µM. The molecule also gave an IC50 cell viability in experiment [3] of 39.9 µM.
Take `CCCCNC(=O)OCC#CI` [3-Iodo-2-propynyl-N-butylcarbamate]: the “IC50 cell viability (WST-8)” value in experiment [2] is greater than 88 µM. Moreover, the IC50 cell viability in experiment [3] stood at 76.7 µM.
Take `COc1ccc(C(C)=O)cc1` [4'-Methoxyacetophenone]: in experiment [2], the “IC50 cell viability (WST-8)” value is 53.4 µM. This molecule also displayed an IC50 cell viability in experiment [3] of 55.5 µM.
With `Cc1c2ccccc2c(C)c2c1ccc1ccccc12` [7,12-Dimethylbenz(a)anthracene], the “IC50 cell viability (WST-8)” value in experiment [1] and in experiment [2] was 46.2 µM in each case. Also, the IC50 cell viability in experiment [3] and in experiment [4] was 46.2 µM in each case.
As for `CCCCCCCCCCCC[N+](C)(C)Cc1ccccc1` [Benzyldimethyldodecylammonium chloride], the “IC50 cell viability (WST-8)” value in experiment [1] is 22.2 µM; in experiment [2], 3.36 µM. The IC50 cell viability is 2.91 µM in experiment [3] and 43.1 µM in experiment [4].
With `CC(C)(c1ccc(OCC2CO2)cc1)c1ccc(OCC2CO2)cc1` (configuration not stated) [Bisphenol A diglycidyl ether], the “IC50 cell viability (WST-8)” value in experiment [1] was determined as 65.2 µM; in experiment [2], 43.7 µM. Besides, the IC50 cell viability in experiment [3] amounted to 39.1 µM; in experiment [4], 71.2 µM.
Turning to `O=[N+]([O-])C(Br)(CO)CO` [Bronopol], the entries for the “IC50 cell viability (WST-8)” value in experiment [1] and in experiment [2] were 53.8 µM and 24.9 µM, respectively. For the same molecule, the IC50 cell viability was 24.1 µM in experiment [3] and 73.2 µM in experiment [4].
In turn, `CC1=CC(=C(c2ccc(N)cc2)c2ccc(N)cc2)C=CC1=N` [C.I. Basic Violet 14] yielded an IC50 cell viability in experiment [3] of 1.16 µM.
For the molecule `CC(C)(C)C(=O)C(Oc1ccc(Cl)cc1)n1ccnc1` (configuration not stated) [Climbazole], the IC50 cell viability in experiment [3] came out at 0.42 µM.
In the case of `O=C1OC2(c3cc(Br)c(O)c(Br)c3Oc3c2cc(Br)c(O)c3Br)c2c(Cl)c(Cl)c(Cl)c(Cl)c21` [D&C Red 27], the “IC50 cell viability (WST-8)” value in experiment [1] is 22.3 µM. In addition, the IC50 cell viability was 44.9 µM in experiment [3] and 28.1 µM in experiment [4].
`O=c1c(-c2ccccc2)c1-c1ccccc1` [Diphenylcyclopropenone]: the “IC50 cell viability (WST-8)” value in experiment [1] amounted to 5.47 µM; in experiment [2], 36.6 µM. Further, the IC50 cell viability in experiment [3] amounted to 30.8 µM; in experiment [4], 5.69 µM.
With `CCCCCCCCCCCC(=O)O` [Dodecanoic acid], the “IC50 cell viability (WST-8)” value was greater than 88 µM in experiment [1] and 58.1 µM in experiment [2]. Also, the IC50 cell viability in experiment [3] was 58.1 µM; in experiment [4] it was greater than 88 µM.
In the case of `CCCCCCCCCCCCOC(=O)c1cc(O)c(O)c(O)c1` [Dodecyl gallate], in experiment [2], the “IC50 cell viability (WST-8)” value worked out at 23.5 µM. In addition, the IC50 cell viability in experiment [3] stood at 21 µM.
In the case of `CCCCCCCCCCCCc1ccc(S(=O)(=O)O)cc1` [Dodecylbenzenesulfonic acid], the entries for the “IC50 cell viability (WST-8)” value in experiment [1] and in experiment [2] were 23 µM and 29.5 µM, respectively. Also, the values for the IC50 cell viability in experiment [3] and in experiment [4] were 25.8 µM and 29.9 µM, respectively.
Regarding `Cc1ccc(/C=C2/C(=O)C3(C)CCC2C3(C)C)cc1` (configuration not stated) [Enzacamene], the “IC50 cell viability (WST-8)” value in experiment [1] and in experiment [2] was greater than 88 µM in each case. Besides, the IC50 cell viability in experiment [3] was determined as 71.3 µM; in experiment [4] it was 71.6 µM.
Molecule `CCCCN(CCC(=O)OCC)C(C)=O` [Ethyl 3-(N-butylacetamido)propionate] returned an IC50 cell viability in experiment [3] of 21 µM.
With `O=CCCCC=O` [Glutaraldehyde], the “IC50 cell viability (WST-8)” value in experiment [1] is greater than 88 µM; in experiment [2], 24.4 µM. The IC50 cell viability in experiment [3] is 20.2 µM; in experiment [4] it was greater than 88 µM.
Consider `Oc1c(Cl)cc(Cl)c(Cl)c1Cc1c(O)c(Cl)cc(Cl)c1Cl` [Hexachlorophene], for which the figures for the “IC50 cell viability (WST-8)” value in experiment [1] and in experiment [2] were 2.28 µM and 0.37 µM, respectively. Besides, the IC50 cell viability in experiment [3] came to 0.39 µM; in experiment [4], 18.8 µM.
For `CC1(C)CNC(=NN=C(/C=C/c2ccc(C(F)(F)F)cc2)/C=C/c2ccc(C(F)(F)F)cc2)NC1` [Hydramethylnon] the same measures were 51.3 µM, 27 µM, 17 µM and 38.9 µM.
The molecule `Oc1ccc(O)cc1` [Hydroquinone] yielded an IC50 cell viability in experiment [3] of 39.1 µM.
Consider `C=CC(=O)OCCCCCCCC(C)C` [Isodecyl acrylate], for which the “IC50 cell viability (WST-8)” value in experiment [2] stood at 1.54 µM. In addition, the IC50 cell viability in experiment [3] was found to be 3.55 µM.
For `CC(=O)N1CCN(c2ccc(OCC3COC(Cn4ccnc4)(c4ccc(Cl)cc4Cl)O3)cc2)CC1` (configuration not stated) [Ketoconazole] the same measures were 14 µM and 26.4 µM.
In the same order, the values of `CN=C1C=CC(=C(c2ccc(N(C)C)cc2)c2ccc(N(C)C)cc2)C=C1` [Methyl Violet] are 0.51 µM and 0.64 µM.
Consider `CN(C)c1ccc(C(=C2C=CC(=[N+](C)C)C=C2)c2ccc(N(C)C)cc2)cc1` [Methylrosaniline chloride], for which the “IC50 cell viability (WST-8)” value in experiment [1] was 42.8 µM; in experiment [2], 1.51 µM. Also, the values for the IC50 cell viability in experiment [3] and in experiment [4] were 1.99 µM and 41.5 µM, respectively.
As to `CCCCC(CC)COC(=O)C(C#N)=C(c1ccccc1)c1ccccc1` (configuration not stated) [Octocrylene], the “IC50 cell viability (WST-8)” value in experiment [2] came out at 9.8 µM. The molecule further yielded an IC50 cell viability in experiment [3] of 16.6 µM.
As for `Oc1c(Cl)c(Cl)c(Cl)c(Cl)c1Cl` [Pentachlorophenol], the “IC50 cell viability (WST-8)” value turned out to be 1.18 µM in experiment [1] and 0.12 µM in experiment [2]. For the same molecule, the IC50 cell viability in experiment [3] amounted to 0.51 µM; in experiment [4], 4.23 µM.
For the molecule `O=C1C=CC(=C(c2ccc(O)cc2)c2ccccc2S(=O)(=O)O)C=C1` [Phenol Red sodium salt], the IC50 cell viability in experiment [3] is 79.9 µM.
Consider `O=CCc1ccccc1` [Phenylacetaldehyde], for which, in experiment [2], the “IC50 cell viability (WST-8)” value was greater than 88 µM. The molecule also yielded an IC50 cell viability in experiment [3] greater than 88 µM.
In the case of `CC(=O)[O][Hg][c]1ccccc1` [Phenylmercuric acetate], the figures for the “IC50 cell viability (WST-8)” value in experiment [1] and in experiment [2] were 0.38 µM and 0.01 µM, respectively. For the same molecule, the IC50 cell viability was determined as 0.06 µM in experiment [3] and 0.37 µM in experiment [4].
For the molecule `CCCCCCCCCCCCCCCCOCCOCCOCCOCCOCCOCCOCCOCCOCCOCCOCCOCCOCCOCCOCCOCCOCCOCCOCCOCCO` [Polyethylene glycol (20) hexadecyl ether], the “IC50 cell viability (WST-8)” value in experiment [2] worked out at 13.3 µM.
For `[K+].[K+].[O]=[Cr](=[O])([O-])[O][Cr](=[O])(=[O])[O-]` [Potassium dichromate], the “IC50 cell viability (WST-8)” value in experiment [1] was 2.3 µM; in experiment [2], 1.97 µM. Also, the figures for the IC50 cell viability in experiment [3] and in experiment [4] were 1.66 µM and 2.53 µM, respectively.
In the case of `CC(=O)OCC(C)OC(C)=O` (configuration not stated) [Propylene glycol diacetate], the “IC50 cell viability (WST-8)” value in experiment [2] was 27.7 µM. In addition, the IC50 cell viability in experiment [3] was 35.7 µM.
Consider `C=C/C=C\CC1=C(C)[C@@H](OC(=O)[C@@H]2[C@@H](/C=C(\C)C(=O)OC)C2(C)C)CC1=O.C=C/C=C\CC1=C(C)[C@@H](OC(=O)[C@@H]2[C@@H](C=C(C)C)C2(C)C)CC1=O` [Pyrethrins], for which the “IC50 cell viability (WST-8)” value in experiment [2] turned out to be 34.8 µM.
Molecule `CCN(CC)c1ccc2c(-c3ccccc3C(=O)O)c3ccc(=[N+](CC)CC)cc-3oc2c1` [Rhodamine B] gave an IC50 cell viability in experiment [3] of 42.8 µM.
Turning to `COC(C)(C)CCC[C@H](C)C/C=C/C(C)=C/C(=O)OC(C)C` [S-Methoprene], in experiment [2], the “IC50 cell viability (WST-8)” value was 82.5 µM. In experiment [3], this molecule came in with an IC50 cell viability of 82.5 µM.
In turn, `CCN(CC)c1ccc(C(=C2C=CC(=[N+](CC)CC)C=C2)c2ccc(S(=O)(=O)O)cc2S(=O)(=O)[O-])cc1` [Sulfan blue] registered an IC50 cell viability in experiment [3] of 41.3 µM.
For `N#CC(Cl)(Cl)Cl` [Trichloroacetonitrile], the “IC50 cell viability (WST-8)” value in experiment [1] turned out to be 6.07 µM; in experiment [2], 1.2 µM. Further, the IC50 cell viability in experiment [3] turned out to be 0.8 µM; in experiment [4], 5.34 µM.
As to `O=C(Nc1ccc(Cl)cc1)Nc1ccc(Cl)c(Cl)c1` [Triclocarban], in experiment [2], the “IC50 cell viability (WST-8)” value is 2.31 µM. For the same molecule, the IC50 cell viability in experiment [3] is 2.7 µM; in experiment [4], 6.78 µM.
As for `C=C1CC[C@H](O)C/C1=C/C=C1\CCC[C@]2(C)[C@@H]([C@H](C)CCCC(C)C)CC[C@@H]12` [Vitamin D3], the “IC50 cell viability (WST-8)” value in experiment [2] was 12.7 µM. Further, in experiment [3], the IC50 cell viability came to 13.7 µM.
On to `CC(C)(C)c1cc(O)ccc1O` [tert-Butylhydroquinone], for which the “IC50 cell viability (WST-8)” value in experiment [2] is greater than 88 µM. Further, the IC50 cell viability worked out at 77.7 µM in experiment [3] and 58.1 µM in experiment [4].

Values taken from the supplement of paper PMC7046801.
